Test results from PubChem BioAssay AID258 (DTP/NCI, 2004).
Where “and” joins values, the source holds several entries; their conditions need not be identical. Equal values may be shown once. Inconclusive results and toxic doses are left out.

Test system: CD2F1 mice, L1210 leukemia sc, survival T/C
Experiment: NCI In Vivo Anticancer Drug Screen. Data for tumor model L1210 Leukemia (subcutaneous) in CD2F1 (CDF1) mice
Settings: endpoint: median survival time, higher = longer survival
Experimental: The antitumor activity of compounds was measured in mice bearing transplantable tumors. Survival or tumor size were measured and the results are expressed as the measurement made in the treated group (T) divided by the measurement made in the vehicle treated control group (C). The tumor model used in this assay is L1210 Leukemia (subcutaneous) in CD2F1 (CDF1) mice

O=NN(CCCl)C(=O)NC1CCCCC1
T/C (dose: 0.5 mg/kg/injection, schedule: Q01DX009 (ip), vehicle: saline + alcohol): 98 % of control | T/C (dose: 0.5 mg/kg/injection, schedule: Q01DX009 (sc), vehicle: saline + alcohol): 101 % of control and 106 % of control | T/C (dose: 1.0 mg/kg/injection, schedule: Q01DX009 (ip), vehicle: saline + alcohol): 101 % of control | T/C (dose: 1.0 mg/kg/injection, schedule: Q01DX009 (sc), vehicle: saline + alcohol): 105 % of control and 114 % of control | T/C (dose: 2.0 mg/kg/injection, schedule: Q01DX009 (sc), vehicle: saline + alcohol): 119 % of control | T/C (dose: 3.0 mg/kg/injection, schedule: Q01DX Z (iv), vehicle: carboxymethylcellulose (CMC)): 105 % of control and 112 % of control | T/C (dose: 3.0 mg/kg/injection, schedule: Q01DX Z (oral), vehicle: carboxymethylcellulose (CMC)): 162 % of control | T/C (dose: 3.0 mg/kg/injection, schedule: Q01DX Z (sc), vehicle: carboxymethylcellulose (CMC)): 118 % of control | T/C (dose: 4.0 mg/kg/injection, schedule: Q01DX009 (ip), vehicle: saline + alcohol): 178 % of control and 186 % of control | T/C (dose: 5.0 mg/kg/injection, schedule: Q01DX Z (ip), vehicle: carboxymethylcellulose (CMC)): 177 % of control and 181 % of control | T/C (dose: 5.0 mg/kg/injection, schedule: Q01DX Z (iv), vehicle: carboxymethylcellulose (CMC)): 294 % of control | T/C (dose: 5.0 mg/kg/injection, schedule: Q01DX Z (oral), vehicle: carboxymethylcellulose (CMC)): 493 % of control | T/C (dose: 5.0 mg/kg/injection, schedule: Q01DX Z (sc), vehicle: carboxymethylcellulose (CMC)): 112 % of control and 155 % of control and 287 % of control | T/C (dose: 5.36 mg/kg/injection, schedule: Q01DX009 (sc), vehicle: saline + alcohol): 323 % of control | T/C (dose: 8.0 mg/kg/injection, schedule: Q01DX009 (ip), vehicle: saline + alcohol): 234 % of control and 261 % of control | T/C (dose: 8.4 mg/kg/injection, schedule: Q01DX Z (ip), vehicle: carboxymethylcellulose (CMC)): 381 % of control and 383 % of control | T/C (dose: 8.4 mg/kg/injection, schedule: Q01DX Z (iv), vehicle: carboxymethylcellulose (CMC)): 225 % of control and 261 % of control | T/C (dose: 8.4 mg/kg/injection, schedule: Q01DX Z (oral), vehicle: carboxymethylcellulose (CMC)): 412 % of control | T/C (dose: 8.4 mg/kg/injection, schedule: Q01DX Z (sc), vehicle: carboxymethylcellulose (CMC)): 106 % of control and 237 % of control and 300 % of control | T/C (dose: 10.7 mg/kg/injection, schedule: Q01DX009 (ip), vehicle: saline + alcohol): 337 % of control | T/C (dose: 10.7 mg/kg/injection, schedule: Q01DX009 (sc), vehicle: saline + alcohol): 378 % of control | T/C (dose: 12.0 mg/kg/injection, schedule: Q01DX009 (sc), vehicle: saline + alcohol): 325 % of control | T/C (dose: 14.0 mg/kg/injection, schedule: Q01DX Z (ip), vehicle: carboxymethylcellulose (CMC)): 255 % of control and 387 % of control | T/C (dose: 14.0 mg/kg/injection, schedule: Q01DX Z (iv), vehicle: carboxymethylcellulose (CMC)): 183 % of control and 381 % of control | T/C (dose: 14.0 mg/kg/injection, schedule: Q01DX Z (oral), vehicle: carboxymethylcellulose (CMC)): 255 % of control and 300 % of control | T/C (dose: 14.0 mg/kg/injection, schedule: Q07DX Z (sc), vehicle: carboxymethylcellulose (CMC)): 112 % of control | T/C (dose: 15.0 mg/kg/injection, schedule: Q01DX009 (ip), vehicle: Klucel (hydroxypropylcellulose) (HPC)): 220 % of control | T/C (dose: 16.0 mg/kg/injection, schedule: Q01DX009 (ip), vehicle: saline + alcohol): 306 % of control and 340 % of control | T/C (dose: 16.0 mg/kg/injection, schedule: Q01DX009 (sc), vehicle: saline + alcohol): 271 % of control and 284 % of control and 348 % of control | T/C (dose: 23.0 mg/kg/injection, schedule: Q01DX Z (ip), vehicle: carboxymethylcellulose (CMC)): 177 % of control and 268 % of control | T/C (dose: 23.0 mg/kg/injection, schedule: Q01DX Z (iv), vehicle: carboxymethylcellulose (CMC)): 155 % of control and 368 % of control | T/C (dose: 23.0 mg/kg/injection, schedule: Q01DX Z (oral), vehicle: carboxymethylcellulose (CMC)): 212 % of control and 222 % of control | T/C (dose: 23.0 mg/kg/injection, schedule: Q01DX Z (sc), vehicle: carboxymethylcellulose (CMC)): 156 % of control and 211 % of control and 268 % of control | T/C (dose: 23.0 mg/kg/injection, schedule: Q07DX Z (sc), vehicle: carboxymethylcellulose (CMC)): 118 % of control | T/C (dose: 24.0 mg/kg/injection, schedule: Q01DX009 (ip), vehicle: saline + alcohol): 184 % of control | T/C (dose: 24.0 mg/kg/injection, schedule: Q01DX009 (sc), vehicle: saline + alcohol): 219 % of control | T/C (dose: 30.0 mg/kg/injection, schedule: Q01DX009 (ip), vehicle: Klucel (hydroxypropylcellulose) (HPC)): 275 % of control | T/C (dose: 32.0 mg/kg/injection, schedule: Q01DX009 (sc), vehicle: saline + alcohol): 173 % of control | T/C (dose: 39.0 mg/kg/injection, schedule: Q01DX Z (oral), vehicle: carboxymethylcellulose (CMC)): 161 % of control | T/C (dose: 39.0 mg/kg/injection, schedule: Q01DX Z (sc), vehicle: carboxymethylcellulose (CMC)): 312 % of control | T/C (dose: 64.0 mg/kg/injection, schedule: Q01DX009 (ip), vehicle: saline + alcohol): 95 % of control | T/C (dose: 64.0 mg/kg/injection, schedule: Q01DX009 (sc), vehicle: saline + alcohol): 107 % of control and 120 % of control | T/C (dose: 65.0 mg/kg/injection, schedule: Q01DX001 (sc), vehicle: carboxymethylcellulose (CMC)): 200 % of control | T/C (dose: 65.0 mg/kg/injection, schedule: Q01DX Z (sc), vehicle: carboxymethylcellulose (CMC)): 237 % of control | T/C (dose: 65.0 mg/kg/injection, schedule: Q07DX Z (sc), vehicle: carboxymethylcellulose (CMC)): 475 % of control | T/C (dose: 108.0 mg/kg/injection, schedule: Q01DX001 (sc), vehicle: carboxymethylcellulose (CMC)): 193 % of control | T/C (dose: 108.0 mg/kg/injection, schedule: Q01DX Z (oral), vehicle: carboxymethylcellulose (CMC)): 122 % of control | T/C (dose: 108.0 mg/kg/injection, schedule: Q07DX Z (sc), vehicle: carboxymethylcellulose (CMC)): 250 % of control | T/C (dose: 180.0 mg/kg/injection, schedule: Q01DX001 (sc), vehicle: carboxymethylcellulose (CMC)): 362 % of control | T/C (dose: 180.0 mg/kg/injection, schedule: Q01DX Z (oral), vehicle: carboxymethylcellulose (CMC)): 116 % of control | T/C (dose: 180.0 mg/kg/injection, schedule: Q07DX Z (sc), vehicle: carboxymethylcellulose (CMC)): 193 % of control | T/C (dose: 300.0 mg/kg/injection, schedule: Q01DX001 (sc), vehicle: carboxymethylcellulose (CMC)): 243 % of control

CC(=O)Nc1ccc2nc3ccc(NC(C)=O)cc3[n+](-c3ccccc3)c2c1
T/C (dose: 8.4 mg/kg/injection, schedule: Q01DX Z (ip), vehicle: saline): 90 % of control | T/C (dose: 14.0 mg/kg/injection, schedule: Q01DX Z (ip), vehicle: saline): 95 % of control | T/C (dose: 14.0 mg/kg/injection, schedule: Q01DX Z (sc), vehicle: saline): 100 % of control | T/C (dose: 23.0 mg/kg/injection, schedule: Q01DX Z (ip), vehicle: saline): 90 % of control | T/C (dose: 23.0 mg/kg/injection, schedule: Q01DX Z (sc), vehicle: saline): 100 % of control | T/C (dose: 39.0 mg/kg/injection, schedule: Q01DX Z (ip), vehicle: saline): 100 % of control | T/C (dose: 39.0 mg/kg/injection, schedule: Q01DX Z (sc), vehicle: saline): 100 % of control | T/C (dose: 65.0 mg/kg/injection, schedule: Q01DX Z (ip), vehicle: saline): 100 % of control | T/C (dose: 65.0 mg/kg/injection, schedule: Q01DX Z (sc), vehicle: saline): 105 % of control | T/C (dose: 108.0 mg/kg/injection, schedule: Q01DX Z (ip), vehicle: saline): 100 % of control | T/C (dose: 108.0 mg/kg/injection, schedule: Q01DX Z (sc), vehicle: saline): 100 % of control | T/C (dose: 180.0 mg/kg/injection, schedule: Q01DX Z (sc), vehicle: saline): 110 % of control
